Measured values: patent publication US20240376363A1, “FLUORINE SUBSTITUTED CYCLOBUTENE COMPOUNDS, AND COMPOSITIONS, METHODS AND USES INCLUDING SAME” (HONEYWELL INTERNATIONAL INC., priority 2021, published 2024)

Tests used:
heat of vaporization = format: physicochemical
[1] = miscibility with mineral oil; format: physicochemical; conditions: for Miscibility: with mineral oil, concentration up to which miscible
Excerpt: In addition, the compounds of the present invention have good miscibility with lubricants, including lubricants used in vapour compression refrigeration systems. For example, the Compounds 1 and 3 are fully miscible with e mineral oil at concentrations up to about 66.7 weight percent as indicated in the following table.

flash point (ASTM D3828) = format: physicochemical
Method: Flash Point refers the lowest temperature at which vapors of the liquid will […] as determined in accordance with ASTM D3828.
Non-flammable in the context of a thermal management composition or fluid means compounds or compositions which are determined to be non-flammable. The flash point of a thermal management composition or fluid refers the lowest temperature at which vapors of the composition will keep burning after the ignition source is removed as determined in accordance with ASTM D3828.

[2] = long term (28 day) toxicity exposure; format: in vivo; conditions: 28 day exposure
[3] = short term (4 hour) toxicity exposure; format: in vivo; conditions: 4 hour exposure
Excerpt: LC50 is a measure of the acute toxicity of a compound. The acute inhalation toxicity of a compound can be assessed using the method described in the OECD Guideline for Testing of Chemicals No. 403 “Acute Inhalation Toxicity” (2009), Method B.2. (Inhalation) of Commission Regulation (EC) No. 440/2008.

SMILES	Heat of Vaporization (heat of vaporization) [kJ/mol]	Normal Boiling Point (normal boiling point) [°C]	further results
FC(F)(F)OC1=C(OC(F)(F)F)C(F)(F)C1(F)F [Compound 13]	32	144	–
COC1=C(Cl)C(F)(F)C1(F)F [Compound 4]	–	110	–
FC1=CCC1(F)F [Compound 2, 1,4,4-trifluorocyclobut-1-ene]	–	32	Miscibility with mineral oil ([1]; ratio compound to mineral oil): Not miscible; Flash Point (flash point (ASTM D3828)): Flash point observed
COC1=C(OC)C(F)(F)C1(F)F [Compound 11, 3,3,4,4-tetrafluoro-1,2-dimethoxycyclobut-1-ene]	–	127	–
FC(F)(F)COC1=C(Cl)C(F)(F)C1(F)F [Compound 18, 1-chloro-3,3,4,4-tetrafluoro-2-(2,2,2-trifluoroethoxy) cyclobut-1-ene]	38	–	–
FC1=C(Cl)CC1(F)F [Compound 1, 1-chloro-2,3,3-trifluorocyclo-1-ene]	–	52	long term (28 day) toxicity exposure [2]: failed; Miscibility [1]: Miscible up to 66.7%; Flash Point (flash point (ASTM D3828)): No flash point
FC1(F)C(Oc2ccccc2)=C(Oc2ccccc2)C1(F)F [Compound 17, ((perfluorocyclobut-1-ene-1,2-diyl)bis(oxy))dibenzene]	75	–	–
FC1=C(OC(C(F)(F)F)C(F)(F)F)C(F)(F)C1(F)F [Compound 14, 1,3,3,4,4-pentafluoro-2-((1,1,1,3,3,3-hexafluoropropan-2-yl)oxy)cyclobut-1-ene]	31	–	–
FC(F)(F)C(OC1=C(OC(C(F)(F)F)C(F)(F)F)C(F)(F)C1(F)F)C(F)(F)F [Compound 15, 3,3,4,4-pentafluoro-1,2-bis((1,1,1,3,3,3-hexafluoropropan-2-yl)oxy) cyclobut-1-ene]	34	–	–
FC1=C(Oc2ccccc2)C(F)(F)C1(F)F [Compound 16, ((perfluorocyclobut-1-en-1-yl)oxy)benzene]	42	–	–
FC1(F)C(Cl)=C(Cl)C1(F)F [Compound 3, 1,2-dichloro-3,3,4,4-tetrafluorocyclobut-1-ene]	–	58	short term (4 hour) toxicity exposure [3]: failed; Miscibility [1]: Miscible up to 66.7%; Flash Point (flash point (ASTM D3828)): No flash point
